The test system of data set [1] is Mus musculus. The data set can be described thus: Neuroprotective activity in middle cerebral artery occlusion-induced C57BL/6 mouse model assessed as reduction in infarct volume at 2 mg/kg, sc incubated with compound for 2 hrs after reperfusion by TTC staining based assay. It is filed as functional.
Data set [2] deals with PC-12. The data set can be described thus: Neuroprotective activity against glutamate-induced neurotoxicity in rat PC-12 cells assessed as survival rate at 1 uM by WST-8 assay. Format: functional. For orientation: Tetrazolium assays rely on reduction of a dye to a coloured formazan, in cell work by metabolically active cells.
The nature of data set [3]: Solubility of the compound in water by UV spectophotometry analysis. Format: physicochemical.
Data set [4] deals with PC-12. The data set can be described thus: Neuroprotective activity against glutamate-induced neurotoxicity in rat PC-12 cells assessed as survival rate at 0.1 uM by WST-8 assay (reference value: 40.8+/-2.0%). It is filed as functional.
Data set [5] deals with PC-12. The data set can be described thus: Neuroprotective activity against glutamate-induced neurotoxicity in rat PC-12 cells assessed as survival rate at 10 uM by WST-8 assay. Format: functional.
For data set [6], the target named is T1, Glutamate NMDA receptor; GRIN1/GRIN2A (Homo sapiens) (UniProt Q05586+Q12879). The data set can be described thus: Positive allosteric modulation of GluN1/GluN2A receptor (unknown origin) stably expressed in HEK293 cells assessed as glutamate/glycine induced increase in intracellular calcium level at 10 uM incubated for 30 mins followed by addition of glutamate/glycine by Ca2+ influx assay. Format: cell-based. Conditions: filed as positive allosteric modulator.

Data set [7] relates to PC-12. Briefly: Cytotoxicity in rat PC-12 cells assessed as reduction in cell viability at 10 uM incubated for 24 hrs by CCK-8 method. Format: toxicity, cell-based. Conditions: pc-12, 24 h.
Data set [8] addresses Glutamate NMDA receptor; GRIN1/GRIN2B (Homo sapiens) (UniProt Q05586+Q13224). Briefly: Positive allosteric modulation of GluN1/GluN2B receptor (unknown origin) stably expressed in HEK293 cells assessed as glutamate/glycine induced increase in intracellular calcium level at 10 uM incubated for 30 mins followed by addition of glutamate/glycine by Ca2+ influx assay. It is filed as cell-based. (In general: Calcium assays in cells follow changes in intracellular calcium, usually with a dye or a luminescent sensor.)

Data set [9] concerns Mus musculus. Briefly: Neuroprotective activity in middle cerebral artery occlusion-induced C57BL/6 mouse model assessed as reduction in infarct volume at 2 mg/kg, sc incubated with compound for 2 hrs after reperfusion by TTC staining based assay relative to control. Details: scale not given: the % may be the effect or the level left. Format: functional.
The target in data set [10] is T1, Glutamate NMDA receptor; GRIN1/GRIN2A (Homo sapiens). Briefly: Positive allosteric modulation of GluN1/GluN2A receptor (unknown origin) stably expressed in HEK293 cells assessed as ratio of Fmax/F0 fluorescence curve value. It is filed as cell-based. To be noted: filed as positive allosteric modulator.
[11] abbreviates: filed as positive allosteric modulator.

Values after ≈ are worked out from the molar mass of the structure shown. Active and inactive are the calls of the source. No cut-off for these calls is given here.

The solubility is how much of the substance goes into solution per volume.

On to `CC(=O)Nc1ccc(NC(=O)c2c[nH]c3c(Cl)cccc3c2=O)cc1`, for which the Activity in [1] is reported as 96 mm; in data set [2], 62%; in data set [4], 61.5%; in data set [5] it was 62.7%; in data set [7] it was 91.9%. Also, the solubility in data set [3] stood at 34.7 µM (≈ 12.3 µg/mL). Also, the result in [6] and in [8] (setting [11]) was Active.
Regarding `Cc1ccc(O)cc1NC(=O)c1c[nH]c2ccccc2c1=O`, the Activity in [9] turned out to be 45%; in data set [2], 52%; in data set [4], 59.5%; in [5], 50.2%; in data set [7], 63.6%. For the same compound, the Ratio in [10] was determined as 154. This compound showed a solubility in [3] of 29.6 µM (≈ 8.71 µg/mL). For the same compound, the outcome in data set [6] was Active. Further, the outcome in data set [8] was inactive.
For the compound `CCOc1cc(Cl)c(Cl)c(/C=N/NC(=O)c2ccccc2Br)c1O`, the Activity in data set [1] is listed as 149 mm; in data set [9], 31.33%; in data set [2] it was 53.1%; in data set [4] it was 44.3%; in data set [5], 8.6%; in data set [7], 40.2%. Besides, in data set [10], the Ratio stood at 152. Moreover, the outcome in data set [6] and in [8] (setting [11]) was Active.

Values taken from ChEMBL document CHEMBL5252626, “Design and synthesis of novel GluN2A NMDAR positive allosteric modulators via scaffold hopping strategy as anti-stroke therapeutic agents” (Bioorg Med Chem, 2023).
